Experimental data published in patent publication US20230416203A1, “POTENT AND SELECTIVE INHIBITORS OF THE CALCIUM-ACTIVATED POTASSIUM CHANNEL, KCA3.1, FOR USE AS PLATFORM THERAPEUTICS” (priority 2020, published 2023).

Assays:
KV11.1 (hERG) = molecular target: T1, KV11.1 (hERG) (Homo sapiens, UniProt Q12809); experiment: Potassium channels patch-clamp (QPatch), KV11.1 (hERG); format: cell-based
T1 construct: host or cells: CHO
Method: (§1) The effects of Group 4 compounds on related potassium channels were evaluated by patch-clamp using a QPatch HTX automated electrophysiology platform (Sophion, Denmark). The giga-seal and whole-cell requirements for the automated electrophysiology were the following: minimum seal resistance=0.1 GO, holding potential=−80 mV, holding pressure=−20 mbar; and positioning pressure=−70 mbar.

KV1.2 = molecular target: T2, KV1.2 (Rattus norvegicus, UniProt P63142); experiment: Potassium channels patch-clamp (QPatch), KV1.2; format: cell-based
T2 construct: expressed in transfected cells; host or cells: B82
Method: as §1

[1] = Microsomal stability studies; conditions: for Microsomal Stability (human) % remaining @ 30 mins: human microsomes, 1 μM; for drug/control (% remaining @ 30 mins): ratio to Verapamil control
KV1.3 = molecular target: T3, KV1.3 (Mus musculus, UniProt P16390); experiment: Potassium channels patch-clamp (QPatch), KV1.3; format: cell-based
T3 construct: expressed in transfected cells; host or cells: L929
T3 sequence (P16390 whole entry): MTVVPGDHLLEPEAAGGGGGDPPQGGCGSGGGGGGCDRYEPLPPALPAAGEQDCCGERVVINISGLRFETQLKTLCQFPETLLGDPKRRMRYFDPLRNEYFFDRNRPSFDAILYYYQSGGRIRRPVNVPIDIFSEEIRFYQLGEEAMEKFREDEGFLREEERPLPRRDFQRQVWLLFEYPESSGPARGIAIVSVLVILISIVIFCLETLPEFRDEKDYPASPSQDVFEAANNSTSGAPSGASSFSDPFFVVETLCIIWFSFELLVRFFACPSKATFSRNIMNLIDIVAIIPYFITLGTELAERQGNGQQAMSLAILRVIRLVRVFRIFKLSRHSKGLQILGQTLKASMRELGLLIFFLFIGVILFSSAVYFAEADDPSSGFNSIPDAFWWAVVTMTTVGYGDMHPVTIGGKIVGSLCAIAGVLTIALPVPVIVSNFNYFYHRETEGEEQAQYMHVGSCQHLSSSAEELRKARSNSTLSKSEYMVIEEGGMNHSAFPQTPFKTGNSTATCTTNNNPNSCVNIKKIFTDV
Method: as §1

KV1.4 = molecular target: T4, KV1.4 (Homo sapiens, UniProt P22459); experiment: Potassium channels patch-clamp (QPatch), KV1.4; format: cell-based
T4 construct: expressed in transfected cells; host or cells: LTK
Method: as §1

KV4.2 = molecular target: T5, KV4.2 (Rattus norvegicus, UniProt Q63881); experiment: Potassium channels patch-clamp (QPatch), KV4.2; format: cell-based
T5 construct: expressed in transfected cells; host or cells: LTK
T5 sequence (Q63881 1-630): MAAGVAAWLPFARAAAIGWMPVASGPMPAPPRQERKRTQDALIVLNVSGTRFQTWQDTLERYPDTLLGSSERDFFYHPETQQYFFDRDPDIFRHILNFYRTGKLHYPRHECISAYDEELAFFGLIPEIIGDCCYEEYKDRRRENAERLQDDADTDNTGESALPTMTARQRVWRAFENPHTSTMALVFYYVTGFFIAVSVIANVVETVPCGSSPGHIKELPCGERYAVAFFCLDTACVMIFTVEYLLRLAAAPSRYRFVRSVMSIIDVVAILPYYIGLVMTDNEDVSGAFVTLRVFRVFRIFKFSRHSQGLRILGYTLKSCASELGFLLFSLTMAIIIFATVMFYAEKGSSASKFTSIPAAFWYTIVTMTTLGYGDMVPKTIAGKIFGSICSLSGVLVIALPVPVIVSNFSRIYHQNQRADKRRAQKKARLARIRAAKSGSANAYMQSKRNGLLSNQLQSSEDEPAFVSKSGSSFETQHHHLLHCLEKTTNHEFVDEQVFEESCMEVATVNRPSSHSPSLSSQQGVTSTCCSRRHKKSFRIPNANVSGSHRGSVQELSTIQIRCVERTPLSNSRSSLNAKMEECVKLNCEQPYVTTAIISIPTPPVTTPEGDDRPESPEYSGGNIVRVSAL
Method: as §1

CYP-2D6 = molecular target: T6, CYP-2D6 (Homo sapiens, UniProt P10635); experiment: Cytochrome P450 enzymes inhibition assay, CYP-2D6; format: in vitro ADME; conditions: for CYP IC50/KCa3.1 IC50: CYP-2D6
T6 construct: from tissue
T6 sequence (P10635 whole entry): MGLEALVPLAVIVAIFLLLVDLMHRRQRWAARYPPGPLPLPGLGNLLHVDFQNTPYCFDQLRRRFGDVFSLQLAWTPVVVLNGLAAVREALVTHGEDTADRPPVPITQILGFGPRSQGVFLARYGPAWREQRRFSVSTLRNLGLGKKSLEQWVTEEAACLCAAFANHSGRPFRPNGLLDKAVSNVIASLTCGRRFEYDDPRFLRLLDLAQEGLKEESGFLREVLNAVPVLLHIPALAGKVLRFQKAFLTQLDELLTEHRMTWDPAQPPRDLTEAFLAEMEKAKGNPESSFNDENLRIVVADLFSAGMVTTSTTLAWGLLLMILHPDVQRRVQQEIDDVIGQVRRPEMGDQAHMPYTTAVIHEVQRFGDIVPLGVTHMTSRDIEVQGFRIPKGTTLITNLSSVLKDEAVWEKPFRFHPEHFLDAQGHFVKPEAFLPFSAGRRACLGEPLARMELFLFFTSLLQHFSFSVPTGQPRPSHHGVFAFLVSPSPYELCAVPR
Source text: (§2) The metabolite formation for each substrate under the above conditions was estimated using the following formula: Percent inhibition=[1−(test area ratio/control area ratio)]×100.

CYP-2C9 = CYP-2C9 (Homo sapiens, UniProt P11712); experiment: Cytochrome P450 enzymes inhibition assay, CYP-2C9; format: in vitro ADME; conditions: for CYP IC50/KCa3.1 IC50: CYP-2C9
Sequence of CYP-2C9 (P11712 whole entry): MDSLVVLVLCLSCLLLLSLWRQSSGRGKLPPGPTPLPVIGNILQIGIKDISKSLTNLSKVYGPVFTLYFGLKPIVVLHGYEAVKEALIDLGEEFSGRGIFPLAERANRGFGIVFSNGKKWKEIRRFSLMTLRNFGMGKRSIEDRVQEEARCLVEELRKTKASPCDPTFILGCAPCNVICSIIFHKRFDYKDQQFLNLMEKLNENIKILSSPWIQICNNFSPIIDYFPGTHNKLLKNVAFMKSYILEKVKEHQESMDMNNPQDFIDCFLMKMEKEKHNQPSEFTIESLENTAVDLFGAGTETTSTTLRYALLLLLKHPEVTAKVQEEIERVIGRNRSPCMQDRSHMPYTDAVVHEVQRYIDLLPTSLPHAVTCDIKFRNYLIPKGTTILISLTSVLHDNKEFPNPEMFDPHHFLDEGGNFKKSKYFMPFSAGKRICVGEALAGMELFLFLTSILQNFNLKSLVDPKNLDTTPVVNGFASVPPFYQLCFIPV
Source text: as §2

CaV1.2 channel = CaV1.2 channel (Homo sapiens, UniProt Q13936); experiment: cell-based
KV1.5 = molecular target: T7, KV1.5 (Homo sapiens, UniProt P22460); experiment: Potassium channels patch-clamp (QPatch), KV1.5; format: cell-based
T7 construct: expressed in transfected cells; host or cells: MEL
Method: as §1

CYP-2C19 = CYP-2C19 (Homo sapiens, UniProt P33261); experiment: Cytochrome P450 enzymes inhibition assay, CYP-2C19; format: in vitro ADME; conditions: for CYP IC50/KCa3.1 IC50: CYP-2C19
Sequence of CYP-2C19 (P33261 whole entry): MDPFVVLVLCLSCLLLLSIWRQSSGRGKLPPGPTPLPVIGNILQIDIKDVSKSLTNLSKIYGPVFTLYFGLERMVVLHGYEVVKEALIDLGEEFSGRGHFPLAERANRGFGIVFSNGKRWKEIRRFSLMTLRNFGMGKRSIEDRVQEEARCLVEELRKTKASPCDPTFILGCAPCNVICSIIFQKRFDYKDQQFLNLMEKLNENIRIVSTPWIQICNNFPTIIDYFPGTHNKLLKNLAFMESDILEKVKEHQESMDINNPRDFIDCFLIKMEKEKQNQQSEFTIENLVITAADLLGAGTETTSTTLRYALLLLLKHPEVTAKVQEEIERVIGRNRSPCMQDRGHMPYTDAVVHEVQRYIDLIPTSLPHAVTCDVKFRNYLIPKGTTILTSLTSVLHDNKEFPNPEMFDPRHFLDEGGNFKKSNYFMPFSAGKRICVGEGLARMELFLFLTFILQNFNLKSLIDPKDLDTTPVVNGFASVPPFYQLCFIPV
Source text: as §2

KV3.1 = molecular target: T8, KV3.1 (Mus musculus, UniProt P15388); experiment: Potassium channels patch-clamp (QPatch), KV3.1; format: cell-based
T8 construct: expressed in transfected cells; host or cells: L929
T8 sequence (P15388 1-511): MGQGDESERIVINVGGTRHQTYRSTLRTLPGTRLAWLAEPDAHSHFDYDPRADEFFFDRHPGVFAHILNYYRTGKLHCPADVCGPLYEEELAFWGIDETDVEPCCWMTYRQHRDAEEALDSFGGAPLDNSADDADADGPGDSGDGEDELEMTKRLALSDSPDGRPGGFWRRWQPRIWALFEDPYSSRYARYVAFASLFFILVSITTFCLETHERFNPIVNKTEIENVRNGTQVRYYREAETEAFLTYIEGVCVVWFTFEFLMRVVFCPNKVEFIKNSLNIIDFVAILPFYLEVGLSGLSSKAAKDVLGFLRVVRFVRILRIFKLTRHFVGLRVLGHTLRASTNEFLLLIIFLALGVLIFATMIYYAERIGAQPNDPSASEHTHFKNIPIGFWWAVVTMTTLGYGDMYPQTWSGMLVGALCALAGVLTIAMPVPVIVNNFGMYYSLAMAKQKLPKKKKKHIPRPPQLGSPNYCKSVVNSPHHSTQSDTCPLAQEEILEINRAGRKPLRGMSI
Method: as §1

KCa1.1 = molecular target: T9, KCa1.1 (Homo sapiens, UniProt Q12791); experiment: Potassium channels patch-clamp (QPatch), KCa1.1; format: cell-based
T9 construct: expressed in transfected cells; host or cells: HEK
Method: as §1

CYP-3A4 = molecular target: T10, CYP-3A4 (Homo sapiens, UniProt P08684); experiment: Cytochrome P450 enzymes inhibition assay, CYP-3A4; format: in vitro ADME; conditions: for CYP IC50/KCa3.1 IC50: CYP-3A4
T10 construct: from tissue
T10 sequence (P08684 whole entry): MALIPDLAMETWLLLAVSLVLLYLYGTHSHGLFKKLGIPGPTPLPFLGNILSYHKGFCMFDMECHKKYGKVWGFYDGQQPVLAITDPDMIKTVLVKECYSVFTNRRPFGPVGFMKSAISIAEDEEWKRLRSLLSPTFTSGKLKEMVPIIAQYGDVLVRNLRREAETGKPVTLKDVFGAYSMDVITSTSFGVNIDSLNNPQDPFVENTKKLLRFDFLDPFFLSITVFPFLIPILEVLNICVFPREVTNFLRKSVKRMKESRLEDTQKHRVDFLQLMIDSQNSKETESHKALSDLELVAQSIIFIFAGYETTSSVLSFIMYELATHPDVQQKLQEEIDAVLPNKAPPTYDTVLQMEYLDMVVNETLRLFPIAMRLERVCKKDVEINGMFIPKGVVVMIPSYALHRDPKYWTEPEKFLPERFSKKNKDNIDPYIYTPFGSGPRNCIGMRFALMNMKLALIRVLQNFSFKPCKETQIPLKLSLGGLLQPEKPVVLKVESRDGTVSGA
Source text: as §2

KV1.1 = molecular target: T11, KV1.1 (Mus musculus, UniProt P16388); experiment: Potassium channels patch-clamp (QPatch), KV1.1; format: cell-based
T11 construct: expressed in transfected cells; host or cells: L929
Method: as §1

KCa2.2 = molecular target: T12, KCa2.2 (Rattus norvegicus, UniProt P70604); experiment: Potassium channels patch-clamp (QPatch), KCa2.2; format: cell-based
T12 construct: expressed in transfected cells; host or cells: HEK
T12 sequence (P70604 whole entry): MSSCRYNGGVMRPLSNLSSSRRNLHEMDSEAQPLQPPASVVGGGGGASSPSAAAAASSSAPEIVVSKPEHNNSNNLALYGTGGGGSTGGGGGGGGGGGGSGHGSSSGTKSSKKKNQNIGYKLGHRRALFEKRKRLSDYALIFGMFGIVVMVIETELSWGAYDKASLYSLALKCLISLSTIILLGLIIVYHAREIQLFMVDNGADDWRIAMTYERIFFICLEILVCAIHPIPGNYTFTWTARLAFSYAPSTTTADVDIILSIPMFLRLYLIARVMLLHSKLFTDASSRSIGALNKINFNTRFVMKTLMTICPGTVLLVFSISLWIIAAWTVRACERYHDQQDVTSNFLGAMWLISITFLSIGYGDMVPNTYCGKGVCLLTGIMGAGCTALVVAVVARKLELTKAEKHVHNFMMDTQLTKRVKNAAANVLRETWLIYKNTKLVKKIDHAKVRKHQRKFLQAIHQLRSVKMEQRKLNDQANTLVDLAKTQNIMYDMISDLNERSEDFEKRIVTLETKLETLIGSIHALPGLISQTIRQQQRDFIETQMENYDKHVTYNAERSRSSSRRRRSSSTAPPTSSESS
Method: as §1

KV1.7 = molecular target: T13, KV1.7 (Homo sapiens, UniProt Q96RP8); experiment: Potassium channels patch-clamp (QPatch), KV1.7; format: cell-based
T13 construct: expressed in transfected cells; host or cells: CHL
T13 sequence (Q96RP8 whole entry): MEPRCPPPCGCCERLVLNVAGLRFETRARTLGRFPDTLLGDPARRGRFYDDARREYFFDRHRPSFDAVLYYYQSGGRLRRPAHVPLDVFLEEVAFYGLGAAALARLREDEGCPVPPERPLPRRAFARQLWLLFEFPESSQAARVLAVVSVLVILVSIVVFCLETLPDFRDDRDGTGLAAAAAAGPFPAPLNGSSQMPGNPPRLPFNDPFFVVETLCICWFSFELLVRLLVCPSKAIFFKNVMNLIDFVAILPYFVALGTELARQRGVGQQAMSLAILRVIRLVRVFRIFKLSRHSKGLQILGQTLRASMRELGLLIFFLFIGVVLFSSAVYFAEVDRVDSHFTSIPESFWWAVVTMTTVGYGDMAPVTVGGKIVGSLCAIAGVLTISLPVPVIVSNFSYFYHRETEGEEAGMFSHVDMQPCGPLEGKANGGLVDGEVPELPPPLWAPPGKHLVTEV
Method: as §1

T1 sequence (Q12809 whole entry): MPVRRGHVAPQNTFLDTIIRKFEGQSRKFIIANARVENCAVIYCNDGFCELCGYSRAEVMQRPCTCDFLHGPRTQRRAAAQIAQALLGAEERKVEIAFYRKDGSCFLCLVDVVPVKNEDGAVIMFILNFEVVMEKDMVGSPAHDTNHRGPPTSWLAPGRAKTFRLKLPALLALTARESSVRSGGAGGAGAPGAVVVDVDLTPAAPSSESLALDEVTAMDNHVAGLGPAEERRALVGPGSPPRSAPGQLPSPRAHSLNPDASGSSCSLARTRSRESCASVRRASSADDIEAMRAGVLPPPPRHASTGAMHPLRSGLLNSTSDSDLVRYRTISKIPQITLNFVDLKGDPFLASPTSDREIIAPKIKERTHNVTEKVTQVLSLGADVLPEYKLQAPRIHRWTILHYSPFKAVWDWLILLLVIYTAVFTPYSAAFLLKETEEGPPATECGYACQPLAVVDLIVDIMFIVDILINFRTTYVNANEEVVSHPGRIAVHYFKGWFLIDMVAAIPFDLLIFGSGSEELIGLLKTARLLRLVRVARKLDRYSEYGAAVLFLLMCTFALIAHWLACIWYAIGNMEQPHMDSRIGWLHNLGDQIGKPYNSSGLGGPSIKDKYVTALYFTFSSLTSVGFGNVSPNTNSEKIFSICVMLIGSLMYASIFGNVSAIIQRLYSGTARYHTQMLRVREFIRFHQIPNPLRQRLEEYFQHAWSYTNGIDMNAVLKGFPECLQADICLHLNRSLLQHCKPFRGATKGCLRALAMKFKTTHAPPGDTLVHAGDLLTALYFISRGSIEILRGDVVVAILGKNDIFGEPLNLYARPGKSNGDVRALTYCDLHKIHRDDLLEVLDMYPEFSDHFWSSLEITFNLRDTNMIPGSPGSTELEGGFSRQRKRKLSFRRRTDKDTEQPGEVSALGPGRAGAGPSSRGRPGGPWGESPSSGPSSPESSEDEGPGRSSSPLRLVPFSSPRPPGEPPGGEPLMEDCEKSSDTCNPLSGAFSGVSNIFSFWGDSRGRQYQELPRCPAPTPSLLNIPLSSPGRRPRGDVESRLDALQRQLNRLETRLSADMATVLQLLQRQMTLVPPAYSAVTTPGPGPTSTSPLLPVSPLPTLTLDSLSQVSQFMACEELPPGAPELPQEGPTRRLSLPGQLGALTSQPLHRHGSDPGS

SMILES | IC50 (KV11.1 (hERG)) | IC50 (KV1.2) | Microsomal Stability (human) % remaining @ 30 mins [1] | drug/control (% remaining @ 30 mins) [1] | IC50 (KV1.3) | IC50 (KV1.4) | IC50 (KV4.2) | CYP IC50/KCa3.1 IC50 (CYP-2D6) | CYP IC50/KCa3.1 IC50 (CYP-2C9) | IC50 (CaV1.2 channel) | IC50 (KV1.5) | CYP IC50/KCa3.1 IC50 (CYP-2C19) | IC50 (KV3.1) | IC50 (KCa1.1) | CYP IC50/KCa3.1 IC50 (CYP-3A4) | IC50 (KV1.1) | IC50 (KCa2.2) | IC50 (KV1.7) | further results
COC(=O)C1=C(C)NC(C)=C(C(=O)OC)C1c1ccc(F)c(C(F)(F)F)c1 [Compound 101] | > 10 µM | > 10 µM | 53% | 1.6 | > 10 µM | > 10 µM | > 10 µM | 1226 | 162.5 | 3.2 µM | > 10 µM | 1226 | > 10 µM | > 10 µM | 79.75 | > 10 µM | > 10 µM | > 10 µM | IC50 (CYP-2D6; microsomes): > 20 µM; IC50 (CYP-2C9; microsomes): 2.6 µM; IC50 (CYP-2C19; microsomes): > 20 µM; IC50 (CYP-3A4; microsomes): 1.3 µM
COC(=O)C1=CNC=C(C(=O)OC)C1c1ccc(F)c(C(F)(F)F)c1 [Compound 103, Dimethyl 4-(4-fluoro-3-(trifluoromethyl)phenyl)-1,4-dihydropyridine-3,5-dicarboxylate] | > 10 µM | > 10 µM | 25% | 3.7 | > 10 µM | > 10 µM | > 10 µM | 3279 | 836 | 13.5 µM | > 10 µM | 3279 | > 10 µM | > 10 µM | 3279 | > 10 µM | > 10 µM | > 10 µM | –
